# Source: article PMC8904451, “Novel chalcone-derived pyrazoles as potential therapeutic agents for the treatment of non-small cell lung cancer” (Scientific Reports, 2022)
# Experiments:
# Format in all cases: cell-based, human
# [1] = system: A-549, H226, and H460 cells; assay: Annexin V/PI apoptosis assay by flow cytometry; conditions: 48 h, IC90, depending on the cell line; vehicle approximately 5%
# Description: To examine whether the effect of PCH-1 on reducing the viability of lung cancer cells was the result of inducing apoptotic cell death, A-549, H226, and H460 cells were treated with the compound for 6, 24, and 48 h, and analyzed by Annexin V/propidium iodide (PI) double staining using flow cytometry (Fig. S1 in supplementary information). […] At 24 h of treatment with the compound, a slight increase in both early (Annexin V(+)/PI(−)) and late (Annexin V(+)/PI(+)) apoptotic fractions was observed. […] PI can enter only those cells with damaged plasma membrane, which enables to differentiate early apoptotic cells from late apoptotic and necrotic cells. Overall, biochemical changes involved in apoptotic cell death were prevailing, whereas necrotic changes were not observed. Furthermore, typical phenotypic features of cells undergoing apoptosis were visualized by fluorescent microscopy in Supplementary Fig. S2 and described in Supplementary Information.
# Cells were seeded onto tissue culture plates and allowed to attach for 24 h. Next, the cells were treated with PCH-1 or Etoposide at IC90 concentration for 6, 24, and 48 h. […]
# [2] = system: A-549, H226, and H460 cells; assay: Colony formation assay; conditions: 1, 5, 10 µM for 24 h, then 9 days culture
# Description: Cells were seeded onto 6-well plates (500 cells/well) and allowed to attach for 24 h in a fresh RPMI medium. Next, the cells were pretreated with DMSO (1%) solution of the examined compound (at the concentrations of 1, 5, and 10 µM) for 24 h. The medium containing compound was then changed, and the cells were cultured for additional 9 days. After incubation, the cells were washed twice with phosphate-buffered saline (PBS), fixed with 100% methanol for 30 min, and stained with 0.5% crystal violet for 15 min. The colonies were photographed and counted by ImageJ software.
# H460 cells = assay: MTT cell viability assay, H460
# Description: (§1) All the synthesized chalcone-derived pyrazoles were evaluated for their antiproliferative activity against three human non-small cell lung cancer cell lines: A-549, H226, and H460, and a nonmalignant human embryonic kidney cell line HEK293. Cisplatin and 5-fluorouracil (5-FU) were used as a reference. Cells were exposed to a range of PCH concentrations (0.5–100 µM) for 72 h and analyzed by 3-(4,5-dimethylthiazol-2-yl)-2,5-diphenyl-2H-tetrazolium bromide (MTT) assay. The results of the studies are expressed as the IC50 concentration that inhibits 50% growth of cells. […] Following treatment with PCH-1, the viability of all the tested cancer cell lines decreased in a concentration-dependent manner.
# (§2) The cell viability assay was performed for A-549, H226, H460, and HEK293 cells after treatment with the test compounds by using the 3-(4,5-dimethylthiazol-2-yl)-2,5-diphenyltetrazolium bromide (MTT, Sigma-Aldrich) assay. Briefly, cells were seeded onto 96-well culture plates for attachment. After 24 h, triplicate wells were treated with DMSO (1%) and the agents. After 72 h of incubation at 37 °C in 5% CO2, the MTT solution (0.4 mg/ml) was added to each well. After 2–4 h of incubation, the medium was removed, and the formazan crystals were dissolved in 100 μl of DMSO. The absorption was measured at 450 nm with an ASYS UVM340 microplate reader (Biochrom Ltd.). The 50% inhibitory concentration (IC50) was defined as the concentration that reduced the absorbance of the DMSO-treated wells by 50% of the vehicle. The IC50 values were generated from GraphPad Prism 9 software by plotting the survival curve as a function of dose from 3 independent experiments.
# [3] = system: caspase-3/7 in H460 cells; assay: Caspase-3/7 activation by flow cytometry, H460; conditions: IC90
# Description: To explain the type of cell death that cancer cells undergo after treatment with PCH-1, the ability of the compound to activate caspases 3–7 was determined by flow cytometry. […] The most pronounced activation of caspase 3 occurred equally in A-549 and H226 cell lines after 48 h of treatment and was sevenfold greater than that in the vehicle.
# Cells were seeded onto tissue culture plates and allowed to attach for 24 h. Next, the cells were treated with PCH-1 or Etoposide at IC90 concentration for 6, 24, and 48 h. After incubation, the cells were harvested by trypsinization, rinsed twice with PBS, and stained with Annexin V Alexa Fluor™ 488 conjugate (Thermo Fisher, #A13201) for apoptosis assay and with CellEvent™ Caspase-3/7 Green Flow Cytometry Assay Kit (Thermo Fisher, #C10427) for caspase-3/7 activation according to the manufacturer’s protocols. The analysis was performed with Guava EasyCyte 8 cell sorter (Merck Millipore) and FlowJo software v10. Each experiment was repeated independently three times.
# HEK293 cells = assay: MTT cell viability assay, HEK293; conditions: Homo sapiens, HEK293, 72 h, nonmalignant cells, read-out: IC50 ± SD, growth inhibition, HEK293
# Description: as §1, §2
# A-549 cells = assay: Intracellular ROS measurement (H2DCFDA, flow cytometry)
# Source text: The generation of intracellular reactive oxygen species (ROS) causes an imbalance of cellular redox homeostasis, followed by damage of cellular components and cell death. Therefore, compounds with the ability to produce high levels of ROS and/or inhibit antioxidant processes are often used in anticancer therapies. In the present study, the effect of PCH-1 on ROS generation in A-549 cells was investigated by flow cytometry. As an indicator of ROS generation, the fluorescent probe 2ʹ,7ʹ-dichlorodihydrofluorescein diacetate (H2DCFDA) was used, which undergoes oxidation by ROS to form a highly fluorescent compound 2ʹ,7ʹ-dichlorofluorescein (DCF). As shown in Supplementary Fig. S6 in Supplementary Information, compound PCH-1 induced a massive amount of ROS in A-549 cells in a time-dependent manner. […] Moreover, the induction of ROS was equally high for PCH-1 and the reference compound H2O2 in all the tested time points.
# For determination the ROS generation, cells were treated with IC90 of PCH-1, H2O2, or 1% DMSO for 3, 6, and 24 h. Next, a 1 µM CM-H2DCFDA (#C6827; Thermo-Fisher) probe was added to the cells in each plate 30 min before the end of the drug treatment. After incubation cells were collected by trypsinization, stained with 7-Aminoactinomycin D (7-AAD, Sigma-Aldrich), and measured. The analysis was performed with Guava EasyCyte 8 cell sorter (Merck Millipore) and FlowJo software v10. Each experiment was repeated independently three times.
compound,measurement,setting,value
"COc1ccc(C2CC(c3cc4c(cc3OC)OCO4)=NN2C(C)=O)cc1 (stereo not shown) [PCH-1, 1-[3-(6-methoxy-2H-1,3-benzodioxol-5-yl)-5-(4-methoxyphenyl)-4,5-dihydro-1H-pyrazol-1-yl]ethan-1-one]",late apoptotic phase (Annexin V(+)/PI(+)) cells,[1],30–60%
same,number of colonies,[2],reduced the number of colonies in all the tested cell lines in a dose-dependent manner
same,"superior activity to the reference compound Cisplatin, H460",H460 cells; 72 h IC50 ratio,~2.6 fold
same,IC50,"H460 cells; Homo sapiens, NCI-H460, 72 h, MTT, read-out: IC50 ± SD, growth inhibition, H460",8.4 ± 1.1 µM
same,"caspase-3/7 activation, increase compared to control, H460",[3]; 6 h,3.15 fold
same,"cells with activated caspase 3/7 vs control, H460",[3]; later exposure,remaining approximately constant
same,IC50,HEK293 cells,20.9 ± 2.34 µM
same,increase of ROS towards vehicle control,"A-549 cells; A-549, IC90, 3 h",15%
same,increase of ROS towards vehicle control,"A-549 cells; A-549, IC90, 6 h",56.9%
same,increase of ROS towards vehicle control,"A-549 cells; A-549, IC90, 24 h",68.1%
